The results in this text go back to patent US20190367516A1 (Bayer Pharma Aktiengesellschaft, priority 2015, published 2019).

Assay [1] addresses T1, human M2 receptor (Homo sapiens, UniProt P08172).
T1 sequence (P08172 1-466): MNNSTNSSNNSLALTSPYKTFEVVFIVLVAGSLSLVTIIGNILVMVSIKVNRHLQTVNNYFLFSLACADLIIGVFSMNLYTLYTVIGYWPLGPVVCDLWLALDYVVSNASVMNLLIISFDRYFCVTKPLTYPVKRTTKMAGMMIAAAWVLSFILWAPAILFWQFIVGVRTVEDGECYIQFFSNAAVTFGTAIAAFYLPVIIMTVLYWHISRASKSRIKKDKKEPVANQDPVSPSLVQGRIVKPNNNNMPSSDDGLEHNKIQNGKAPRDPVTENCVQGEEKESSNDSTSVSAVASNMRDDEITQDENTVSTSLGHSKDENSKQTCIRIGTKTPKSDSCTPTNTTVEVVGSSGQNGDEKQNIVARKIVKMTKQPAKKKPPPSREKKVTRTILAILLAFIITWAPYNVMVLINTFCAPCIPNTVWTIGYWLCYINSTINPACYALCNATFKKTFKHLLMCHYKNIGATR
The following applies: M2-GIRK1/4 reporter cells; for EC50: Receptor activity EC50, allosteric potency at EC20 acetylcholine, in some cases mean of two or more determinations; for Emax: read-out: Efficiency, boosting of the acetylcholine effect at EC20 acetylcholine concentration.

For assay [2], the target named is T1, human M2 receptor. The class given is cell-based. The following applies: shift of acetylcholine dose-response curve (Allosteric EC50 shift); α >1 = positive cooperativity.

Turning to `O=C(NC12CC(C1)C2)c1cn(-c2c(F)cc(F)cc2Cl)c2nc(N3C[C@@H](O)CC3=O)ccc2c1=O` [Example 396, N-(Bicyclo[1.1.1]pent-1-yl)-1-(2-chloro-4,6-difluorophenyl)-7-[(4S)-4-hydroxy-2-oxopyrrolidin-1-yl]-4-oxo-1,4-dihydro-1,8-naphthyridine-3-carboxamide], on human M2 receptor [1], a half-maximal response (EC50) required 17 nM and the Emax stood at 92%. In addition, the “Cooperativity (alpha factor)” value at human M2 receptor [2] was determined as 29.
As for `CC[C@H](NC(=O)c1cn(-c2c(F)cc(F)cc2Cl)c2nc(N3C[C@@H](O)CC3=O)ccc2c1=O)C(F)(F)F` [Example 398, 1-(2-Chloro-4,6-difluorophenyl)-7-[(4S)-4-hydroxy-2-oxopyrrolidin-1-yl]-4-oxo-N-[(2S)-1,1,1-trifluorobutan-2-yl]-1,4-dihydro-1,8-naphthyridine-3-carboxamide], at human M2 receptor [1], the EC50 amounted to 10 nM and the Emax was 100%. Further, on human M2 receptor [2], the “Cooperativity (alpha factor)” value came to 26.
Turning to `O=C(NC12CC(C1)C2)c1cn(-c2c(F)cc(F)cc2Cl)c2nc(N3C[C@@H](O)[C@H](O)C3)ccc2c1=O` [Example 402, N-(Bicyclo[1.1.1]pent-1-yl)-1-(2-chloro-4,6-difluorophenyl)-7-[(3R,4R)-3,4-dihydroxypyrrolidin-1-yl]-4-oxo-1,4-dihydro-1,8-naphthyridine-3-carboxamide], at human M2 receptor [1], the half-maximal effective concentration (EC50) came to 25 nM and the Emax stood at 97.5%. Moreover, on human M2 receptor [2], the “Cooperativity (alpha factor)” value is reported as 18.
Take `C[C@H](NC(=O)c1cn(-c2c(F)cc(F)cc2Cl)c2nc(N3C[C@@H](O)CC3=O)ccc2c1=O)C(F)(F)F` [Example 409, 1-(2-Chloro-4,6-difluorophenyl)-7-[(4S)-4-hydroxy-2-oxopyrrolidin-1-yl]-4-oxo-N-[(2S)-1,1,1-trifluoropropan-2-yl]-1,4-dihydro-1,8-naphthyridine-3-carboxamide]: at human M2 receptor [1], the response was half-maximal at 19 nM (EC50) and the Emax came out at 99.5%. Also, the “Cooperativity (alpha factor)” value on human M2 receptor [2] was found to be 22.
With `C[C@@H]1CN(c2ccc3c(=O)c(C(=O)N[C@@H](C4CC4)C(F)(F)F)cn(-c4c(F)cc(F)cc4F)c3n2)C(=O)N1` [Example 437, N-[(1S)-1-Cyclopropyl-2,2,2-trifluoroethyl]-7-[(4R)-4-methyl-2-oxoimidazolidin-1-yl]-4-oxo-1-(2,4,6-trifluorophenyl)-1,4-dihydro-1,8-naphthyridine-3-carboxamide], at human M2 receptor [1], the EC50 is 9 nM and the Emax was 98.4%. For the same compound, at human M2 receptor [2], the “Cooperativity (alpha factor)” value is on record as 29.
For `C[C@H]1CN(c2ccc3c(=O)c(C(=O)N[C@@H](C4CC4)C(F)(F)F)cn(-c4c(F)cc(F)cc4F)c3n2)C(=O)N1` [Example 449, N-[(1 S)-1-Cyclopropyl-2,2,2-trifluoroethyl]-7-[(4S)-4-methyl-2-oxoimidazolidin-1-yl]-4-oxo-1-(2,4,6-trifluorophenyl)-1,4-dihydro-1,8-naphthyridine-3-carboxamide], at human M2 receptor [1], the EC50 came to 15 nM and the Emax came to 91%. In addition, the “Cooperativity (alpha factor)” value on human M2 receptor [2] came out at 34.
For the compound `CC1(C)CN(c2ccc3c(=O)c(C(=O)N[C@@H](C4CC4)C(F)(F)F)cn(-c4c(F)cc(F)cc4F)c3n2)C(=O)N1` [Example 451, N-[(1 S)-1-Cyclopropyl-2,2,2-trifluoroethyl]-7-(4,4-dimethyl-2-oxoimidazolidin-1-yl)-4-oxo-1-(2,4,6-trifluorophenyl)-1,4-dihydro-1,8-naphthyridine-3-carboxamide], at human M2 receptor [1], the EC50 came out at 8 nM and the Emax came to 91%. At human M2 receptor [2], the “Cooperativity (alpha factor)” value turned out to be 21.
As for `C[C@@H]1CN(c2ccc3c(=O)c(C(=O)NC(C)(C)C(F)F)cn(-c4c(F)cc(F)cc4F)c3n2)C(=O)N1` [Example 452, N-(1,1-Difluoro-2-methylpropan-2-yl)-7-[(4R)-4-methyl-2-oxoimidazolidin-1-yl]-4-oxo-1-(2,4,6-trifluorophenyl)-1,4-dihydro-1,8-naphthyridine-3-carboxamide], at human M2 receptor [1], the EC50 was 13 nM and the Emax stood at 100%. Moreover, the “Cooperativity (alpha factor)” value at human M2 receptor [2] is on record as 25.
Taken in the same sequence, the figures for `CC[C@H](NC(=O)c1cn(-c2c(F)cc(F)cc2F)c2nc(N3C[C@@H](C)NC3=O)ccc2c1=O)C(F)(F)F` [Example 456, 7-[(4R)-4-Methyl-2-oxoimidazolidin-1-yl]-4-oxo-N-[(2S)-1,1,1-trifluorobutan-2-yl]-1-(2,4,6-trifluorophenyl)-1,4-dihydro-1,8-naphthyridine-3-carboxamide] were 9 nM, 92% and 32.
Regarding `C[C@@H]1CN(c2ccc3c(=O)c(C(=O)NC(C)(C)CC(F)(F)F)cn(-c4c(F)cc(F)cc4F)c3n2)C(=O)N1` [Example 457, 7-[(4R)-4-Methyl-2-oxoimidazolidin-1-yl]-4-oxo-N-(4,4,4-trifluoro-2-methylbutan-2-yl)-1-(2,4,6-trifluorophenyl)-1,4-dihydro-1,8-naphthyridine-3-carboxamide], on human M2 receptor [1], a half-maximal effect (EC50) was put at 4 nM and the Emax came out at 82%. Moreover, the “Cooperativity (alpha factor)” value on human M2 receptor [2] was 36.
For `O=C(N[C@@H](C1CC1)C(F)(F)F)c1cn(-c2c(F)cc(F)cc2F)c2nc(N3CCCC[C@@H]3CO)ccc2c1=O` [Example 462, N-[(1 S)-1-Cyclopropyl-2,2,2-trifluoroethyl]-7-[(2R)-2-(hydroxymethyl)piperidin-1-yl]-4-oxo-1-(2,4,6-trifluorophenyl)-1,4-dihydro-1,8-naphthyridine-3-carboxamide], at human M2 receptor [1], the midpoint of the response, the EC50, lay at 18 nM and the Emax turned out to be 88%. Further, the “Cooperativity (alpha factor)” value at human M2 receptor [2] came out at 17.
Regarding `CC(C)C(NC(=O)c1cn(-c2c(F)cc(F)cc2F)c2nc(N3C[C@@H](O)[C@H](O)C3)ccc2c1=O)C(C)C` [Example 474, 7-[(3R,4R)-3,4-Dihydroxypyrrolidin-1-yl]-N-(2,4-dimethylpentan-3-yl)-4-oxo-1-(2,4,6-trifluorophenyl)-1,4-dihydro-1,8-naphthyridine-3-carboxamide], on human M2 receptor [1], the midpoint of the response, the EC50, lay at 5 nM and the Emax came to 100%. In addition, at human M2 receptor [2], the “Cooperativity (alpha factor)” value is reported as 44.
With `CC(C)C(NC(=O)c1cn(-c2c(F)cc(F)cc2F)c2nc(N3C[C@@H](O)CC3=O)ccc2c1=O)C(C)C` [Example 475, N-(2,4-Dimethylpentan-3-yl)-7-[(4S)-4-hydroxy-2-oxopyrrolidin-1-yl]-4-oxo-1-(2,4,6-trifluorophenyl)-1,4-dihydro-1,8-naphthyridine-3-carboxamide], on human M2 receptor [1], the response was half-maximal at 2 nM (EC50) and the Emax was determined as 100%. The “Cooperativity (alpha factor)” value at human M2 receptor [2] turned out to be 68.
For `CC(C)(NC(=O)c1cn(-c2c(F)cc(F)cc2F)c2nc(N3CC[C@@H](O)C3=O)ccc2c1=O)C(F)(F)F` [Example 488, 7-[(3R)-3-Hydroxy-2-oxopyrrolidin-1-yl]-4-oxo-N-(1,1,1-trifluoro-2-methylpropan-2-yl)-1-(2,4,6-trifluorophenyl)-1,4-dihydro-1,8-naphthyridine-3-carboxamide] the same measures were 24 nM, 96% and 53.
For `O=C(N[C@@H](C1CC1)C(F)(F)F)c1cn(-c2c(F)cc(F)cc2F)c2nc(N3CCC(CO)(CO)CC3)ccc2c1=O` [Example 489, 7-[4,4-Bis(hydroxymethyl)piperidin-1-yl]-N-[(1S)-1-cyclopropyl-2,2,2-trifluoroethyl]-4-oxo-1-(2,4,6-trifluorophenyl)-1,4-dihydro-1,8-naphlthyridine-3-carboxamide] the same measures were 27 nM, 100% and 23.
Taken in the same sequence, the figures for `C[C@H](O)CN(C)c1ccc2c(=O)c(C(=O)N[C@@H](C3CC3)C(F)(F)F)cn(-c3c(F)cc(F)cc3F)c2n1` [Example 493] were 16 nM, 94.5% and 14.
In the case of `C[C@@H](O)CN(C)c1ccc2c(=O)c(C(=O)N[C@@H](C3CC3)C(F)(F)F)cn(-c3c(F)cc(F)cc3F)c2n1` [Example 494], on human M2 receptor [1], the EC50 stood at 28 nM and the Emax is 78%. For the same compound, the “Cooperativity (alpha factor)” value on human M2 receptor [2] amounted to 20.
With `CC[C@H](NC(=O)c1cn(-c2c(F)cc(F)cc2F)c2nc(N3CC(CO)(CO)C3)ccc2c1=O)C(F)(F)F` [Example 503, 7-[3,3-Bis(hydroxymethyl)azetidin-1-yl]-4-oxo-N-[(2S)-trifluorobutan-2-yl]-1-(2,4,6-trifluorophenyl)-1,4-dihydro-1,8-naphthyridine-3-carboxamide], on human M2 receptor [1], the response was half-maximal at 28 nM (EC50) and the Emax came to 88.5%. Also, on human M2 receptor [2], the “Cooperativity (alpha factor)” value is on record as 24.
For `CC(C)(C)[C@H](NC(=O)c1cn(-c2c(F)cc(F)cc2F)c2nc(N3C[C@@H](O)CC3=O)ccc2c1=O)C(F)(F)F` [Example 504, 7-[(4S)-4-Hydroxy-2-oxopyrrolidin-1-yl]-4-oxo-N-[(2S)-1,1,1-trifluoro-3,3-dimethylbutan-2-yl]-1-(2,4,6-trifluorophenyl)-1,4-dihydro-1,8-naphthyridine-3-carboxamide] the same measures were 4 nM, 100% and 47.
